Key:
iNOS [1] = experiment: Cytokine-induced iNOS protein in islets from siRNA-injected mice (immunoblot); type: cell-based, mouse; settings: cytokines 4 h
Procedure: Because nitric oxide is known to be a primary effector of islet dysfunction in response to cytokine-induced stress, the transcription of the gene encoding iNOS (Nos2) was also examined.
Cytokine and inhibitor incubation studies: For cytokine incubation assays, a 1000× cocktail of cytokines containing 5 μg/ml IL1β, 10 μg/ml TNFα, and 100 μg/ml IFNγ (all prepared in 0.1% BSA in Tris-buffered saline) was applied at 1× final concentration to groups of 50 islets or 1×10^6 INS-1 (832/13) cells for a total of 4 h at 37° C. […]
(§1) Immunoblot and nitrite and iNOS assays: Whole cell extracts were resolved by electrophoresis on a 4-20% SDS-polyacrylamide gel, followed by immunoblot using anti-eIF5A1, anti-eIF5A2, anti-iNOS, anti-GFP, or anti-actin primary antibodies and fluorophore-labeled secondary antibodies. Immunoblots were visualized using the Li-Cor® Odyssey® system (Li-Cor Biosciences) and quantitated by scanning fluorometry using Odyssey Imaging v. […] Nitrite was quantitated by measuring nitric oxide-derived nitrite from INS-1 cell culture medium using the Griess reagent (Promega) according to the manufacturer's recommendations. iNOS activity was measured using a commercially available kit (Cayman).

INS-1 cells = experiment: GSCa and GSIS of INS-1 cells exposed to cytokines; type: cell-based, rat; settings: preincubation with 125 μM GC7, cytokines 4 h
Procedure: GSCa and GSIS studies were carried out to assess INS-1 cell function in the presence of cytokines and GC7. […] This asynchronous pattern may be related to the dispersed nature of insulinoma cells compared to f3 cells in an intact islet.
Cytokine and inhibitor incubation studies: For cytokine incubation assays, a 1000× cocktail of cytokines containing 5 μg/ml IL1β, 10 μg/ml TNFα, and 100 μg/ml IFNγ (all prepared in 0.1% BSA in Tris-buffered saline) was applied at 1× final concentration to groups of 50 islets or 1×10^6 INS-1 (832/13) cells for a total of 4 h at 37° C. For GC7 incubation studies, GC7 was prepared at a stock concentration of 125 mM in 10 mM acetic acid and applied to cultures of 50 islets or 1×10^6 INS-1 cells to obtain the final concentrations indicted in the figures. Where needed, GC7 was protected from amine oxidases in serum by addition of 1 mM aminoguanidine (Sigma). Cells were incubated with GC7 overnight (˜16 h) at 37° C. prior to analysis. […]
GSCa imaging assays: Intracellular Ca^2+ ((Ca2+)i) was measured using the ratiometric Ca^2+ indicator fura-2 AM using a modification of previously published methods (79). The glucose-stimulated (Ca2+)i response (GSCa) was defined as the difference between ratio measurements (340/380 nm fluorescence) in 11 mM vs. 3 mM glucose. Data were analyzed with IP Lab's software version 4.0 (Scanalytics). […]

iNOS [2] = experiment: Nitrite release into INS-1 cell medium (Griess reagent); type: cell-based, rat; settings: increasing GC7 concentrations, cytokines 4 h; greatest inhibition at 125 μM
From the text: eIF5A1 and eIF5A2 are the only proteins known to contain the unique amino acid hypusine at position 50. Hypusine is formed as a posttranslational modification of residue Lys50 in a reaction requiring spermidine and catalyzed by the sequential actions of the enzymes deoxyhypusine synthase (DHS) and deoxyhypusine hydroxylase (DOHH) (Chen, K Y, and Liu, A Y. Biochemistry and function of hypusine formation on eukaryotic initiation factor 5A. Biol Signals. 1997; 6(3):105-109). […] To further investigate the mechanism of eIF5A-regulated translation of Nos2, studies were performed following overnight incubation of cells with mimosine (an inhibitor of DOHH) and GC7 (an inhibitor of DHS). […]
as §1

eIF5A-Hyp [3] = experiment: New hypusine formation (3H-spermidine incorporation) in INS-1 (832/13) cells; type: cell-based, rat; settings: GC7 125 μM overnight
From the text: (§2) eIF5A1 and eIF5A2 are the only proteins known to contain the unique amino acid hypusine at position 50. Hypusine is formed as a posttranslational modification of residue Lys50 in a reaction requiring spermidine and catalyzed by the sequential actions of the enzymes deoxyhypusine synthase (DHS) and deoxyhypusine hydroxylase (DOHH) (Chen, K Y, and Liu, A Y. Biochemistry and function of hypusine formation on eukaryotic initiation factor 5A. Biol Signals. 1997; 6(3):105-109). […] To further investigate the mechanism of eIF5A-regulated translation of Nos2, studies were performed following overnight incubation of cells with mimosine (an inhibitor of DOHH) and GC7 (an inhibitor of DHS). […] Similar data using GC7 were obtained in primary mouse islets (data not shown) and in human islets (FIGS. 5F and 5G). […]
(§3) Measurement of hvpusination: Approximately 100 islets or 1×10^6 INS-1 cells per condition were incubated with 1.5 μCi ^3H-spermidine (Perkin Elmer) in the presence of 1 mM aminoguanidine. […] Gels were visualized by fluorography, and bands were quantitated using Kodak Molecular Imaging Software v. […]

Nos2 mRNA = experiment: Nos2 transcript levels in INS-1 cells (quantitative RT-PCR); type: cell-based, rat; settings: 125 μM GC7, cytokines
From the text: as §2
Quantitative RT-PCR: Five micrograms of total RNA from islets or INS-1 cells were reverse-transcribed as detailed previously (77). cDNA was subjected to quantitative PCR using SYBR Green-based technology and published primers for mouse Ins1/2 pre-mRNA (78) and QuantiTech® primers (Qiagen) for all other mouse genes. […] All samples were corrected for total input RNA as quantitated by an Experion® (Bio-Rad) bioanalyzer. […]

eIF5A-Hyp [4] = experiment: New hypusine formation (3H-spermidine incorporation) in mouse islets; type: cell-based; settings: GC7 125 μM overnight
From the text: as §2, §3

| Compound | induction of iNOS protein in islets (iNOS [1]) | GSCa and GSIS after cytokines (INS-1 cells) | nitrite release into the medium (iNOS [2]) | new hypusine formation in INS-1 (832/13) (eIF5A-Hyp [3]) | Nos2 transcript levels (Nos2 mRNA) | new hypusine formation in mouse islets (eIF5A-Hyp [4]) |
| --- | --- | --- | --- | --- | --- | --- |
| 5′-AACGGAAUGACUUCCAGCUGA-3′ (siSTABLE modification, further chemistry not given here) [si-eIF5A] | significantly attenuated | – | – | – | – | – |
| NCCCCCCCN=C(N)N [GC7] | – | reverses the suppressive effect of cytokines on GSCa and GSIS almost completely | dose-dependent attenuation | effectively inhibits new hypusine formation | remained disproportionately elevated | effectively inhibits new hypusine formation |
